Measured values from ChEMBL document CHEMBL4177585, “Discovery of berberine based derivatives as anti-influenza agent through blocking of neuraminidase” (Bioorg Med Chem, 2017).
In brackets after ≈: the same amount, converted by molar mass. Activity calls are given as the source filed them. The calls are words filed in the database; no cut-off is given here.

Legend:
[1] = biological target: Neuraminidase (Influenza A virus (A/Puerto Rico/8/1934(H1N1)), UniProt P03468); assay: Inhibition of neuraminidase in influenza A virus (A/Puerto Rico/8/1934(H1N1)) pre-incubated for 30 mins before NA-Star substrate addition for 30 mins by luminescence based assay
Chain of Neuraminidase (Influenza A virus (A/Puerto Rico/8/1934(H1N1)), UniProt P03468) (P03468 whole entry): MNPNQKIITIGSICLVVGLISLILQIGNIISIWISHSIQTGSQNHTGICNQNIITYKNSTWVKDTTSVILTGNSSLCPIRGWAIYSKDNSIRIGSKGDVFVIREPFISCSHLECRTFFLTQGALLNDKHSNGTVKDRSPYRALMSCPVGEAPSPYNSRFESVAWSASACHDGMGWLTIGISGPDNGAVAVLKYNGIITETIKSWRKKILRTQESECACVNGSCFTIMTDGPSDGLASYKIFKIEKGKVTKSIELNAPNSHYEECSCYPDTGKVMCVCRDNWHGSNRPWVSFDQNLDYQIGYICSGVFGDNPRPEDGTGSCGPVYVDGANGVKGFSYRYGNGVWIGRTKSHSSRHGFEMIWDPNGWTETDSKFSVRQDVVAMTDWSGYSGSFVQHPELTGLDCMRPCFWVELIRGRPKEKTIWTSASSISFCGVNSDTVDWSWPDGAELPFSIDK

Influenza A virus [2] = assay: Antiviral activity against Influenza A virus (A/Puerto Rico/8/1934(H1N1)) infected in MDCK cells assessed as reduction in virus-induced cytopathogenicity at 1 ug/ml treated before virus infection and measured after 48 hrs by SRB assay relative to untreated control; assay type: functional
Influenza A virus [3] = assay: Antiviral activity against Influenza A virus (A/Puerto Rico/8/1934(H1N1)) infected in MDCK cells assessed as reduction in virus-induced cytopathogenicity at 1 ug/ml pre-incubated for 1 hr with virus before virus infection of cells and measured after 48 hrs by SRB assay; assay type: functional, organism-based
[4] = Cytotoxicity against MDCK cells incubated for 48 hrs assessed as reduction in cell viability by SRB assay; assay type: cell-based, Canis lupus familiaris; details: dog
Influenza A virus [5] = assay: Antiviral activity against Influenza A virus (A/Puerto Rico/8/1934(H1N1)) infected in MDCK cells assessed as reduction in virus-induced cytopathogenicity incubated for 48 hrs by SRB assay; assay type: functional, organism-based
Influenza B virus [6] = assay: Antiviral activity against Influenza B virus (B/Lee/40) infected in MDCK cells assessed as reduction in virus-induced cytopathogenicity incubated for 48 hrs by SRB assay; assay type: functional, organism-based; details: B/Lee/1940, MDCK
Influenza A virus [7] = assay: Antiviral activity against Influenza A virus (A/Victoria/3/1975(H3N2)) infected in MDCK cells assessed as reduction in virus-induced cytopathogenicity incubated for 48 hrs by SRB assay; assay type: functional, organism-based
Influenza B virus [8] = assay: Antiviral activity against Influenza B virus (B/Maryland/1/59) infected in MDCK cells assessed as reduction in virus-induced cytopathogenicity incubated for 48 hrs by SRB assay; assay type: functional, organism-based
[9] = biological target: Neuraminidase (Influenza A virus (A/Puerto Rico/8/1934(H1N1))) (UniProt P03468); assay: Inhibition of neuraminidase in influenza A virus (A/Puerto Rico/8/1934(H1N1)) assessed as remaining enzyme activity at 0.1 ug/ml pre-incubated for 30 mins before NA-Star substrate addition for 30 mins by luminescence based assay
Chain of Neuraminidase (Influenza A virus (A/Puerto Rico/8/1934(H1N1))) (P03468 whole entry): as above

[10] = biological target: Neuraminidase (Influenza A virus (A/Puerto Rico/8/1934(H1N1))) (UniProt P03468); assay: Inhibition of neuraminidase in influenza A virus (A/Puerto Rico/8/1934(H1N1)) assessed as remaining enzyme activity at 1 ug/ml pre-incubated for 30 mins before NA-Star substrate addition for 30 mins by luminescence based assay
Influenza A virus [11] = assay: Antiviral activity against Influenza A virus (A/Puerto Rico/8/1934(H1N1)) infected in MDCK cells assessed as reduction in virus-induced cytopathogenicity treated 1 hr after virus infection and measured after 48 hrs by SRB assay; assay type: functional, organism-based
Influenza A virus [12] = assay: Antiviral activity against Influenza A virus (A/Puerto Rico/8/1934(H1N1)) infected in MDCK cells assessed as reduction in virus-induced cytopathogenicity treated 7 hrs after virus infection and measured after 48 hrs by SRB assay; assay type: functional, organism-based
Influenza A virus [13] = assay: Antiviral activity against Influenza A virus (A/Puerto Rico/8/1934(H1N1)) infected in MDCK cells assessed as reduction in virus-induced cytopathogenicity treated 4 hrs after virus infection and measured after 48 hrs by SRB assay; assay type: functional, organism-based
Influenza A virus [14] = assay: Antiviral activity against Influenza A virus (A/Puerto Rico/8/1934(H1N1)) infected in MDCK cells assessed as reduction in virus-induced cytopathogenicity treated 1 hr before virus infection and measured after 48 hrs by SRB assay; assay type: functional, organism-based
Influenza A virus [15] = assay: Antiviral activity against Influenza A virus (A/Puerto Rico/8/1934(H1N1)) infected in MDCK cells assessed as reduction in virus-induced cytopathogenicity treated 2 hrs after virus infection and measured after 48 hrs by SRB assay; assay type: functional, organism-based
Influenza A virus [16] = assay: Antiviral activity against Influenza A virus (A/Puerto Rico/8/1934(H1N1)) infected in MDCK cells assessed as reduction in virus-induced cytopathogenicity treated 6 hrs before virus infection and measured after 48 hrs by SRB assay; assay type: functional, organism-based
[17] = biological target: Neuraminidase (Influenza A virus (A/Puerto Rico/8/1934(H1N1))) (UniProt P03468); assay: Inhibition of neuraminidase in influenza A virus (A/Puerto Rico/8/1934(H1N1)) assessed as remaining enzyme activity at 10 ug/ml pre-incubated for 30 mins before NA-Star substrate addition for 30 mins by luminescence based assay
Influenza A virus [18] = assay: Antiviral activity against Influenza A virus (A/Puerto Rico/8/1934(H1N1)) infected in MDCK cells assessed as reduction in virus-induced cytopathogenicity treated immediately after virus infection and measured after 48 hrs by SRB assay; assay type: functional, organism-based
Influenza A virus [19] = assay: Antiviral activity against Influenza A virus (A/Puerto Rico/8/1934(H1N1)) infected in MDCK cells assessed as reduction in virus-induced cytopathogenicity treated 24 hrs after virus infection and measured after 48 hrs by SRB assay; assay type: functional, organism-based
Influenza A virus [20] = assay: Antiviral activity against Influenza A virus (A/Puerto Rico/8/1934(H1N1)) infected in MDCK cells assessed as reduction in virus-induced cytopathogenicity treated 2 hrs before virus infection and measured after 48 hrs by SRB assay; assay type: functional, organism-based
Influenza A virus [21] = assay: Antiviral activity against Influenza A virus (A/Puerto Rico/8/1934(H1N1)) infected in MDCK cells assessed as reduction in virus-induced cytopathogenicity treated 12 hrs after virus infection and measured after 48 hrs by SRB assay; assay type: functional, organism-based

Row | SMILES | Ki [1] | CC50 at 48 h [4] | IC50 (Influenza A virus [5]) | also measured
1 | COc1ccc2cc3[n+](cc2c1OC)CCc1cc2c(cc1-3)OCO2 [BERBERINE] | 14300 nM | 70.2 µg/mL | 31.3 µg/mL | inhibition at 1 µg/mL (Influenza A virus [2]): 12.1%; Activity (Influenza A virus [3]): Active
2 | COc1cc(CN2CCN(C(c3ccccc3)c3ccccc3)CC2)c2cc3[n+](cc2c1O)CCc1cc2c(cc1-3)OCO2.[Cl-] | 490 nM |  | 3.14 µg/mL | 
3 | COc1cc(CN2CCN(c3ccccn3)CC2)c2cc3[n+](cc2c1O)CCc1cc2c(cc1-3)OCO2.[Cl-] | 170 nM | 185 µg/mL | 2.64 µg/mL | 
4 | COc1cc(CN2CCN(c3ccc([N+](=O)[O-])cc3)CC2)c2cc3[n+](cc2c1O)CCc1cc2c(cc1-3)OCO2.[Cl-] | 1330 nM | 1380 µg/mL | > 50 µg/mL | 
5 | COc1cc(CN2CCOCC2)c2cc3[n+](cc2c1O)CCc1cc2c(cc1-3)OCO2.[Cl-] | 480 nM | 126 µg/mL | 44.3 µg/mL | 
6 | COc1cc(CN2CCN(c3ccc(C(F)(F)F)cc3)CC2)c2cc3[n+](cc2c1O)CCc1cc2c(cc1-3)OCO2.[Cl-] | 1590 nM |  | 10 µg/mL | 
7 | COc1cc(CN2CCN(c3ccccc3Cl)CC2)c2cc3[n+](cc2c1O)CCc1cc2c(cc1-3)OCO2.[Cl-] | 2650 nM | 401 µg/mL | 1.63 µg/mL | IC50 (Influenza B virus [6]): 6.33 µg/mL; inhibition at 1 µg/mL (Influenza A virus [2]): 22.1%; Activity (Influenza A virus [3]): Active; IC50 (Influenza A virus [7]): 2.98 µg/mL; IC50 (Influenza B virus [8]): 4.17 µg/mL
8 | COc1cc(CN2CCN(c3cccc(Cl)c3)CC2)c2cc3[n+](cc2c1O)CCc1cc2c(cc1-3)OCO2.[Cl-] | 250 nM |  | 29.6 µg/mL | 
9 | COc1cc(CN2CCN(c3ccc(C)cc3)CC2)c2cc3[n+](cc2c1O)CCc1cc2c(cc1-3)OCO2.[Cl-] | 290 nM | 68.5 µg/mL | 1.48 µg/mL | IC50 (Influenza B virus [6]): 6.17 µg/mL; inhibition at 1 µg/mL (Influenza A virus [2]): 25.3%; Activity (Influenza A virus [3]): Active; IC50 (Influenza A virus [7]): 2.13 µg/mL; IC50 (Influenza B virus [8]): 5.1 µg/mL
10 | COc1cc(CN2CCN(c3ccc(F)cc3)CC2)c2cc3[n+](cc2c1O)CCc1cc2c(cc1-3)OCO2.[Cl-] | 480 nM | 72.6 µg/mL | 0.87 µg/mL | Activity [9]: 43.1%; Activity [10]: 23.4%; IC50 (Influenza A virus [11]): 1.22 µg/mL; IC50 (Influenza B virus [6]): 4.12 µg/mL; inhibition at 1 µg/mL (Influenza A virus [2]): 48.3%; IC50 (Influenza A virus [12]): 9.38 µg/mL; Activity (Influenza A virus [3]): Active; IC50 (Influenza A virus [7]): 1.15 µg/mL; IC50 (Influenza A virus [13]): 1.75 µg/mL; IC50 (Influenza A virus [14]): 3.4 µg/mL; IC50 (Influenza B virus [8]): 3.12 µg/mL; IC50 (Influenza A virus [15]): 1.19 µg/mL; IC50 (Influenza A virus [16]): 52.4 µg/mL; Activity [17]: 16.6%; IC50 (Influenza A virus [18]): 0.89 µg/mL; IC50 (Influenza A virus [19]): > 100 µg/mL; IC50 (Influenza A virus [20]): 21.3 µg/mL; IC50 (Influenza A virus [21]): 23.2 µg/mL
11 | COc1cc(CN2CCN(c3ccc(Cl)cc3)CC2)c2cc3[n+](cc2c1O)CCc1cc2c(cc1-3)OCO2.[Cl-] | 960 nM | 480 µg/mL | 45.3 µg/mL | 
12 | COc1cc(CN2CCN(C(=O)c3ccccc3)CC2)c2cc3[n+](cc2c1O)CCc1cc2c(cc1-3)OCO2.[Cl-] | 580 nM | 424 µg/mL | > 50 µg/mL | 
13 | COc1cc(CN2CCN(c3ccccc3[N+](=O)[O-])CC2)c2cc3[n+](cc2c1O)CCc1cc2c(cc1-3)OCO2.[Cl-] | 1340 nM | 230 µg/mL | > 50 µg/mL | 
14 | COc1ccc(N2CCN(Cc3cc(OC)c(O)c4c[n+]5c(cc34)-c3cc4c(cc3CC5)OCO4)CC2)c(OC)c1.[Cl-] | 1590 nM |  | 47.8 µg/mL | 
15 | COc1cc(CN2CCN(c3cccc(Cl)c3Cl)CC2)c2cc3[n+](cc2c1O)CCc1cc2c(cc1-3)OCO2.[Cl-] | 350 nM | 63.2 µg/mL | 8.37 µg/mL | 
16 | COc1cc(CN2CCN(c3ccc4ccccc4c3)CC2)c2cc3[n+](cc2c1O)CCc1cc2c(cc1-3)OCO2.[Cl-] | 240 nM | 150 µg/mL | 20 µg/mL | 
17 | COc1cc(CN2CCN(c3ncccn3)CC2)c2cc3[n+](cc2c1O)CCc1cc2c(cc1-3)OCO2.[Cl-] | 70 nM | 223 µg/mL | 2.65 µg/mL | 
18 | COc1cc(CN2CCN(c3ccc(OC(F)(F)F)cc3)CC2)c2cc3[n+](cc2c1O)CCc1cc2c(cc1-3)OCO2.[Cl-] | 490 nM | 312 µg/mL | 8.45 µg/mL | 
19 | CCOC(=O)C1=C[C@@H](OC(CC)CC)[C@H](NC(C)=O)[C@@H](N)C1 [OSELTAMIVIR] |  |  | 3.19 µg/mL (≈ 10.2 µM) | Activity [9]: 41.9%; Activity [10]: 32.9%; IC50 (Influenza A virus [11]): 6.13 µg/mL (≈ 19.6 µM); IC50 (Influenza B virus [6]): 41.9 µg/mL (≈ 134 µM); inhibition at 1 µg/mL (Influenza A virus [2]): 25.7%; IC50 (Influenza A virus [12]): 12.8 µg/mL (≈ 40.8 µM); Activity (Influenza A virus [3]): Active; IC50 (Influenza A virus [7]): 12.1 µg/mL (≈ 38.9 µM); IC50 (Influenza A virus [13]): 7.39 µg/mL (≈ 23.7 µM); IC50 (Influenza A virus [14]): 69.8 µg/mL (≈ 223 µM); IC50 (Influenza B virus [8]): 33.2 µg/mL (≈ 106 µM); IC50 (Influenza A virus [15]): 6.05 µg/mL (≈ 19.4 µM); IC50 (Influenza A virus [16]): > 100 µg/mL; Activity [17]: 22.6%; IC50 (Influenza A virus [18]): 4.12 µg/mL (≈ 13.2 µM); IC50 (Influenza A virus [19]): > 100 µg/mL; IC50 (Influenza A virus [20]): 71.5 µg/mL (≈ 229 µM); IC50 (Influenza A virus [21]): 84.3 µg/mL (≈ 270 µM)
20 | COc1cc(CN2CCN(c3ccc(F)cc3F)CC2)c2cc3[n+](cc2c1O)CCc1cc2c(cc1-3)OCO2.[Cl-] | 410 nM | 73.9 µg/mL | 9.92 µg/mL | 
21 | COc1cc(CN2CCN(c3ccccc3F)CC2)c2cc3[n+](cc2c1O)CCc1cc2c(cc1-3)OCO2.[Cl-] | 5200 nM | 68.8 µg/mL | 9.16 µg/mL | 
22 | COc1cc(CN2CCN(c3ccc(C)cc3C)CC2)c2cc3[n+](cc2c1O)CCc1cc2c(cc1-3)OCO2.[Cl-] | 420 nM | 134 µg/mL | 60.1 µg/mL | 
23 | COc1cc(Cn2c3ccccc3c3ccccc32)c2cc3[n+](cc2c1O)CCc1cc2c(cc1-3)OCO2.[Cl-] | 490 nM | 62.6 µg/mL | 9.79 µg/mL | 
24 | COc1cc(CN2CCCCC2)c2cc3[n+](cc2c1O)CCc1cc2c(cc1-3)OCO2.[Cl-] | 680 nM | 1640 µg/mL | > 50 µg/mL | 
